Data from patent publication US20210052582A1, “METHODS OF USE AND PHARMACEUTICAL COMPOSITIONS OF A SELECTIVE SYK INHIBITOR” (Portola Pharmaceuticals, Inc., priority 2018, published 2021).
Where a name gives a salt, the structure may show the parent alone.

What was measured:
[1] = Dissolution study of HCl salt and free base in formulation buffer; type: physicochemical; details: for solubility (visual appearance): 10 mg/mL (1%) in pH 6, 10 mM citrate buffer, 1% PEG400, 1% Glycerin, 0.3% NaCl, 0.05% PS80
Procedure: A dissolution study was performed in which the HCl salt or the free base were added to the following formulation buffer at a concentration of 10 mg/mL (1%): • pH 6, 10 mM citrate buffer, 1% PEG400, 1% Glycerin, 0.3% NaCl, 0.05% PS80.
The pH was increased for soluble samples to better understand their properties. The appearance of the samples was visually observed for clarity or cloudiness. […] The free base was not soluble.

[2] = Free base solubilization with solubilizers; type: physicochemical; details: aqueous solubilizer (excipient) mixture, aqueous with cosolvent or surfactant or cyclodextrin; combination of 3% Glycerin, 5% PEG 400, 5% PEG-35 castor oil, 15% polysorbate 60, 4% polysorbate 80, 2% PVP K29/32, 10% propylene glycol
Text: The free base was not soluble with various solubilizers.

[3] = system: Mice sensitized with short ragweed allergen; test: Murine model of allergic conjunctivitis (conjunctival allergen challenge, short ragweed); type: in vivo, mouse
Procedure: Mice were sensitized with subcutaneously injected short ragweed allergen (day 1, day 11), and underwent conjunctival allergen challenge (CAC) on day 18 with short ragweed allergen. Following challenge, the mice were randomized into treatment groups (n=8) and given topical test compounds: vehicle, 0.1% Compound 1, 1% Compound 1, 1% prednisolone, or saline (BSS) twice a day for 2 days, and three times a day for an additional 4 days during allergen challenges. Challenges were conducted twice daily, on day 21 thru 24. Responses to allergen challenge were evaluated after challenges 1, 4, 6 and 8.

[4] = system: patients with acute or chronic allergic conjunctivitis; test: Clinical conjunctival allergen challenge (CAC) study; type: in vivo, human
Text: In a study utilizing the clinical model of the conjunctival allergen challenge (CAC) qualifying patients with acute or chronic allergic conjunctivitis were randomized to receive one of the five interventions listed below, each was given six doses at 1 drop per dose. The CAC model is a standardized clinical methodology for evaluation of novel drugs for allergy and anti-inflammatory activity, accepted by the FDA for clinical development of novel therapeutics, and has been used for development of 19 drugs currently on the market. In the CAC model, doses of allergen are administered in a controlled fashion to patients eyes in the office setting to induce a controlled allergic reaction. Drug is administered at pre-specified timepoints and signs and symptoms are collected also at pre-specified timepoints to assess efficacy.
• Composition A: 0.5% w/w Compound 1 HCl salt, 1.5% w/w glycerin, 0.01% w/w BAC in 10 mM phosphate buffer, pH 6.0. • Composition B: 1.0% w/w Compound 1 HCl salt, 1.5% w/w glycerin, 0.01% w/w BAC in 10 mM phosphate buffer, pH 6.0. • Placebo: 0.01% w/w BAC, 1.5% w/w glycerol, pH 6.0. After receiving screening and baseline CACs, patients were assigned in a masked randomization fashion to receive a study treatment at 8 hour or 15 min pre-CAC at Visits 4b and 5, respectively. […]
• Ocular Itching [Time Frame: 5, 7, and 10 minutes post allergen administration (CAC)] Ocular Itching were assessed by the subjects using a 0-4 scale (0=none to 4=severe). Average of ocular itching score over both eyes were analyzed. • Conjunctival Redness [Time Frame: 7, 15, and 20 minutes post allergen administration CAC] • Conjunctival Redness were assessed by the investigator using a 0-4 scale (0=none to 4=severe). Average of conjunctival redness score over both eyes were analyzed. • Other variables assessed for efficacy include lid swelling, chemosis, tearing, nasal symptoms, and indication of biological activity via exploratory assessment of biomarkers, and exploratory imaging of inflammation with in vivo confocal microscopy. […]

NC(=O)c1cnc(N[C@@H]2CCCC[C@@H]2N)nc1Nc1cccc(-c2ncccn2)c1 [Compound 1, 2-((1R,2S)-2-aminocyclohexylamino)-4-(3-(pyrimidin-2-yl)phenylamino)pyrimidine-5-carboxamide]
solubility (visual appearance) ([1]; listed as free base): not soluble
solubility [2]: 1000 to 10000 µg/mL
test days with statistically significant reduction in overall mean hyperemia ([3]; 1% Compound 1): 3 of 4
test days with significantly reduced mean change in hyperemia compared to saline ([3]; Compound 1 (0.1%), topical): 2 of 4
test days with significantly reduced mean change in hyperemia (pre-versus post-CAC) compared to saline ([3]; Compound 1 (1%), topical): 4 of 4
ocular discharge, lid swelling, or squinting ([3]; mouse, in vivo): No significant changes
relief of allergic conjunctivitis ([3]; murine model): showed efficacy
treatment emergent adverse events ([4]; Compound 1 groups): rated mild
biological effect ([4]; both concentrations (0.5%, 1%)): clear and consistent biological effect
reduction of redness, 8 hours versus 15 minutes following dosing ([4]; human, in vivo): reduced redness to a greater extent at 8 hours following dosing compared with 15 minutes

NC(=O)c1cnc(N[C@@H]2CCCC[C@@H]2N)nc1Nc1cccc(-c2ncccn2)c1 [HCl salt, 2-((1R,2S)-2-aminocyclohexylamino)-4-(3-(pyrimidin-2-yl)phenylamino)pyrimidine-5-carboxamide]
solubility (visual appearance) [1]: soluble even at a pH of 6
behaviour as pH was increased from 6 ([1]; same formulation buffer, pH increased): precipitates formed

C[C@]12C=CC(=O)C=C1CC[C@@H]1[C@@H]2[C@@H](O)C[C@@]2(C)[C@H]1CC[C@]2(O)C(=O)CO [prednisolone, reference compound]
test days with significant decrease in the mean change in hyperemia ([3]; prednisolone (1.0%), topical, positive control): 2 of 4
